# Source: ChEMBL document CHEMBL1137062, “Evaluation of by disubstituted acridone derivatives as telomerase inhibitors: the importance of G-quadruplex binding” (Bioorg Med Chem Lett, 2004)
# Key:
# A2780 = test: Concentration required to inhibit 50% of human carcinoma A2780 cell lines; type: functional, cell-based
# [1] = target: Telomerase reverse transcriptase (Homo sapiens, UniProt O14746); test: Concentration required to inhibit 50% of telomerase activity
# [2] = Concentration required to inhibit 50% of human carcinoma CH1 cell lines; type: functional, cell-based
# SK-OV-3 = test: Concentration required to inhibit 50% of human carcinoma SKOV3 cell lines; type: functional, cell-based
# Sequence of Telomerase reverse transcriptase (O14746 whole entry): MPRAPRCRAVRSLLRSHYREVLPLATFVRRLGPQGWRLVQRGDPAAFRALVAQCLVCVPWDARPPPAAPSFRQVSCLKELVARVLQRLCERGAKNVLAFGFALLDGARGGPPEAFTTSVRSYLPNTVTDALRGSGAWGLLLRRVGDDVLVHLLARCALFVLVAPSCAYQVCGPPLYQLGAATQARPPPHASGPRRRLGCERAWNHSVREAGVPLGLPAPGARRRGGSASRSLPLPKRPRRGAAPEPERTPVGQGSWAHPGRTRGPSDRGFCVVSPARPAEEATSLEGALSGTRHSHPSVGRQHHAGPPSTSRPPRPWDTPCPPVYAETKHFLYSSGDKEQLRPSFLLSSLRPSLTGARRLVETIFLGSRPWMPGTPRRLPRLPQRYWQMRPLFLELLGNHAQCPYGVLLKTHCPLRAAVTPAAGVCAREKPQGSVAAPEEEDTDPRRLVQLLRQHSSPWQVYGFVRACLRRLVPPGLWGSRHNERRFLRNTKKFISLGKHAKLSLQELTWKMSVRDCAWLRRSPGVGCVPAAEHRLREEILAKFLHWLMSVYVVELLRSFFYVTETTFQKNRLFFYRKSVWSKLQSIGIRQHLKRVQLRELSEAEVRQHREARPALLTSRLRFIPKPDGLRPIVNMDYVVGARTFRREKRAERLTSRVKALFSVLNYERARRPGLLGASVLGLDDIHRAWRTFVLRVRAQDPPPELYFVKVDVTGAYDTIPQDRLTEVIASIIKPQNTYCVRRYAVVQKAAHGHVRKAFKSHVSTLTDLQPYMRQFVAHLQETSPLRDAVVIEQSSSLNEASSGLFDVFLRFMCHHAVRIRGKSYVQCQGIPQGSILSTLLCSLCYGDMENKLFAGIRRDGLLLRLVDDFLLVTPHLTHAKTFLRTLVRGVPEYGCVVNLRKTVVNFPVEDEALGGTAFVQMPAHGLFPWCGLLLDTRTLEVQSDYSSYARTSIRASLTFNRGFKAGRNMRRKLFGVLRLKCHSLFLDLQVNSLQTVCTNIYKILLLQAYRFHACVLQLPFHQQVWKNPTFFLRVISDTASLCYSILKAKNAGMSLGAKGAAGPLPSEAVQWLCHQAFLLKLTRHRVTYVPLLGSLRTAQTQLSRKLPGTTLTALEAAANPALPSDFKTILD
SMILES,IC50 (A2780) [µM],EC50 [1] [µM],IC50 [2] [µM],IC50 (SK-OV-3) [µM]
O=C(CCN1CCCCC1)Nc1ccc2nc3ccc(NC(=O)CCN4CCCCC4)cc3c(O)c2c1,> 25,1.9,> 25,> 25
CN(C)CCC(=O)Nc1ccc2nc3ccc(NC(=O)CCN(C)C)cc3c(O)c2c1,> 25,0.6,> 25,> 25
CC1CCN(CCC(=O)Nc2ccc3c(O)c4cc(NC(=O)CCN5CCC(C)CC5)ccc4nc3c2)CC1,> 25,0.2,25,25
O=C(CCN1CCCCC1)Nc1ccc2c(O)c3ccc(NC(=O)CCN4CCCCC4)cc3nc2c1,19,5.9,13,21
O=C(CCN1CCOCC1)Nc1ccc2c(O)c3ccc(NC(=O)CCN4CCOCC4)cc3nc2c1,> 25,4.9,> 25,> 25
CC[n+]1c(-c2ccccc2)c2cc(N)ccc2c2ccc(N)cc21 [HOMIDIUM BROMIDE],0.1,,0.4,4.5
c1cc2cc3ccc(N4CCCCC4)cc3nc2cc1N1CCCCC1,1.7,2.8,2.3,0.5
O=C(CCN1CCCC1)Nc1ccc2c(O)c3ccc(NC(=O)CCN4CCCC4)cc3nc2c1,> 25,8.1,> 25,> 25
O=C(CCN1CCCCC1)Nc1ccc2c(O)c3cc(NC(=O)CCN4CCCCC4)ccc3nc2c1,5.6,0.4,25,25
c1cc2cc3ccc(N4CCCC4)cc3nc2cc1N1CCCC1,27,5.2,8.2,2.6
CC1CCCCN1CCC(=O)Nc1ccc2c(O)c3ccc(NC(=O)CCN4CCCCC4C)cc3nc2c1 (centres undefined),13,2.3,11,10.5
CCN(CC)CCC(=O)Nc1ccc2c(O)c3cc(NC(=O)CCN(CC)CC)ccc3nc2c1,16,0.7,25,25
CN1CCN(CCC(=O)Nc2ccc3nc4ccc(NC(=O)CCN5CCN(C)CC5)cc4c(O)c3c2)CC1,> 25,1.9,> 25,> 25
CC1CCN(CCC(=O)Nc2ccc3c(O)c4ccc(NC(=O)CCN5CCC(C)CC5)cc4nc3c2)CC1,3,1.7,3,5.6
O=C(CCN1CCC(O)CC1)Nc1ccc2nc3ccc(NC(=O)CCN4CCC(O)CC4)cc3c(O)c2c1,> 25,2.3,> 25,> 25
O=C(CCN1CCC(O)CC1)Nc1ccc2c(O)c3cc(NC(=O)CCN4CCC(O)CC4)ccc3nc2c1,3.5,0.2,25,25
O=C(CCN1CCC(O)CC1)Nc1ccc2c(O)c3ccc(NC(=O)CCN4CCC(O)CC4)cc3nc2c1,> 25,1.7,> 25,> 25

# Results, then the compound that gave them:
IC50 (A2780) [µM],EC50 [1] [µM],IC50 [2] [µM],IC50 (SK-OV-3) [µM],SMILES
0.6,5.8,2.5,2.3,CCN(CC)c1ccc2cc3ccc(N(CC)CC)cc3nc2c1
> 25,5.8,> 25,> 25,O=C(CCN1CCCC1)Nc1ccc2nc3ccc(NC(=O)CCN4CCCC4)cc3c(O)c2c1
> 25,2.3,> 25,> 25,CC1CCCCN1CCC(=O)Nc1ccc2nc3ccc(NC(=O)CCN4CCCCC4C)cc3c(O)c2c1 (centres undefined)
11.2,0.2,25,25,O=C(CCN1CCCCC1CO)Nc1ccc2c(O)c3cc(NC(=O)CCN4CCCCC4CO)ccc3nc2c1 (centres undefined)
> 25,4.3,> 25,> 25,CN(C)CCC(=O)Nc1ccc2c(O)c3ccc(NC(=O)CCN(C)C)cc3nc2c1
> 25,5.7,> 25,> 25,CCN(CC)CCC(=O)Nc1ccc2c(O)c3ccc(NC(=O)CCN(CC)CC)cc3nc2c1
11.8,1.9,11,10.5,CCN1CCN(CCC(=O)Nc2ccc3c(O)c4ccc(NC(=O)CCN5CCN(CC)CC5)cc4nc3c2)CC1
13,2.3,11.8,12,CCC1CCCCN1CCC(=O)Nc1ccc2c(O)c3ccc(NC(=O)CCN4CCCCC4CC)cc3nc2c1 (centres undefined)
